Measured values taken from patent US8957078B2, “Compounds useful as inhibitors of ATR kinase” (Vertex Pharmaceuticals Incorporated, priority 2013, dated 2015).

Columns and labels:
[1] = biological target: T1, ATR kinase (full-length ATR) (Homo sapiens, UniProt Q13535); test: ATR Inhibition Assay (radioactive-phosphate incorporation); format: biochemical; details: Ki(app); 5 nM full-length ATR, 10 μM ATP, 800 μM target peptide, 25° C.
T1 construct: in the presence of 5 nM full-length ATR
Protocol: Compounds were screened for their ability to inhibit ATR kinase using a radioactive-phosphate incorporation assay. Assays were carried out in a mixture of 50 mM Tris/HCl (pH 7.5), 10 mM MgCl2 and 1 mM DTT. Final substrate concentrations were 10 μM [γ-33P]ATP (3 mCi 33P ATP/mmol ATP, Perkin Elmer) and 800 μM target peptide (ASELPASQPQPFSAKKK (SEQ. ID NO: 1)).
Assays were carried out at 25° C. in the presence of 5 nM full-length ATR. An assay stock buffer solution was prepared containing all of the reagents listed above, with the exception of ATP and the test compound of interest. 13.5 μL of the stock solution was placed in a 96 well plate followed by addition of 2 μL of DMSO stock containing serial dilutions of the test compound (typically starting from a final concentration of 15 μM with 3-fold serial dilutions) in duplicate (final DMSO concentration 7%). The plate was pre-incubated for 10 minutes at 25° C. and the reaction initiated by addition of 15 μL [γ-33P]ATP (final concentration 10 μM).
The reaction was stopped after […] by the addition of 30 μL 0.1M phosphoric acid containing 2 mM ATP. A multiscreen phosphocellulose filter 96-well plate (Millipore, Cat no. MAPHN0B50) was pretreated with 100 μL 0.2M phosphoric acid prior to the addition of 45 μL of the stopped assay mixture. The plate was washed with 5×200 μL 0.2M phosphoric acid. After drying, 100 μL Optiphase ‘SuperMix’ liquid scintillation cocktail (Perkin Elmer) was added to the well prior to scintillation counting (1450 Microbeta Liquid Scintillation Counter, Wallac).
After removing mean background values for all of the data points, Ki(app) data were calculated from non-linear regression analysis of the initial rate data using the Prism software package (GraphPad Prism version 3.0cx for Macintosh, GraphPad Software, San Diego Calif., USA).

[2] = tested on: HCT116 colorectal cancer cells; test: Cisplatin Sensitization Assay (96 h cell viability MTS); format: cell-based; details: concentration of compound required to reduce the IC50 of Cisplatin alone by at least 3-fold; HCT116, 96 h MTS
Protocol: Compounds can be screened for their ability to sensitize HCT116 colorectal cancer cells to Cisplatin using a 96 h cell viability (MTS) assay. […] Compounds and Cisplatin are then both added simultaneously to the cell media in 2-fold serial dilutions from a top final concentration of 10 μM as a full matrix of concentrations in a final cell volume of 200 μl, and the cells are then incubated at 37° C. in 5% CO2. After 96 h, 40 μl of MTS reagent (Promega G358a) is added to each well and the cells are incubated for 1 h at 37° C. in 5% CO2. Finally, absorbance is measured at 490 nm using a SpectraMax Plus 384 reader (Molecular Devices) and the concentration of compound required to reduce the IC50 of Cisplatin alone by at least 3-fold (to 1 decimal place) can be reported.

T1 sequence (Q13535 whole entry): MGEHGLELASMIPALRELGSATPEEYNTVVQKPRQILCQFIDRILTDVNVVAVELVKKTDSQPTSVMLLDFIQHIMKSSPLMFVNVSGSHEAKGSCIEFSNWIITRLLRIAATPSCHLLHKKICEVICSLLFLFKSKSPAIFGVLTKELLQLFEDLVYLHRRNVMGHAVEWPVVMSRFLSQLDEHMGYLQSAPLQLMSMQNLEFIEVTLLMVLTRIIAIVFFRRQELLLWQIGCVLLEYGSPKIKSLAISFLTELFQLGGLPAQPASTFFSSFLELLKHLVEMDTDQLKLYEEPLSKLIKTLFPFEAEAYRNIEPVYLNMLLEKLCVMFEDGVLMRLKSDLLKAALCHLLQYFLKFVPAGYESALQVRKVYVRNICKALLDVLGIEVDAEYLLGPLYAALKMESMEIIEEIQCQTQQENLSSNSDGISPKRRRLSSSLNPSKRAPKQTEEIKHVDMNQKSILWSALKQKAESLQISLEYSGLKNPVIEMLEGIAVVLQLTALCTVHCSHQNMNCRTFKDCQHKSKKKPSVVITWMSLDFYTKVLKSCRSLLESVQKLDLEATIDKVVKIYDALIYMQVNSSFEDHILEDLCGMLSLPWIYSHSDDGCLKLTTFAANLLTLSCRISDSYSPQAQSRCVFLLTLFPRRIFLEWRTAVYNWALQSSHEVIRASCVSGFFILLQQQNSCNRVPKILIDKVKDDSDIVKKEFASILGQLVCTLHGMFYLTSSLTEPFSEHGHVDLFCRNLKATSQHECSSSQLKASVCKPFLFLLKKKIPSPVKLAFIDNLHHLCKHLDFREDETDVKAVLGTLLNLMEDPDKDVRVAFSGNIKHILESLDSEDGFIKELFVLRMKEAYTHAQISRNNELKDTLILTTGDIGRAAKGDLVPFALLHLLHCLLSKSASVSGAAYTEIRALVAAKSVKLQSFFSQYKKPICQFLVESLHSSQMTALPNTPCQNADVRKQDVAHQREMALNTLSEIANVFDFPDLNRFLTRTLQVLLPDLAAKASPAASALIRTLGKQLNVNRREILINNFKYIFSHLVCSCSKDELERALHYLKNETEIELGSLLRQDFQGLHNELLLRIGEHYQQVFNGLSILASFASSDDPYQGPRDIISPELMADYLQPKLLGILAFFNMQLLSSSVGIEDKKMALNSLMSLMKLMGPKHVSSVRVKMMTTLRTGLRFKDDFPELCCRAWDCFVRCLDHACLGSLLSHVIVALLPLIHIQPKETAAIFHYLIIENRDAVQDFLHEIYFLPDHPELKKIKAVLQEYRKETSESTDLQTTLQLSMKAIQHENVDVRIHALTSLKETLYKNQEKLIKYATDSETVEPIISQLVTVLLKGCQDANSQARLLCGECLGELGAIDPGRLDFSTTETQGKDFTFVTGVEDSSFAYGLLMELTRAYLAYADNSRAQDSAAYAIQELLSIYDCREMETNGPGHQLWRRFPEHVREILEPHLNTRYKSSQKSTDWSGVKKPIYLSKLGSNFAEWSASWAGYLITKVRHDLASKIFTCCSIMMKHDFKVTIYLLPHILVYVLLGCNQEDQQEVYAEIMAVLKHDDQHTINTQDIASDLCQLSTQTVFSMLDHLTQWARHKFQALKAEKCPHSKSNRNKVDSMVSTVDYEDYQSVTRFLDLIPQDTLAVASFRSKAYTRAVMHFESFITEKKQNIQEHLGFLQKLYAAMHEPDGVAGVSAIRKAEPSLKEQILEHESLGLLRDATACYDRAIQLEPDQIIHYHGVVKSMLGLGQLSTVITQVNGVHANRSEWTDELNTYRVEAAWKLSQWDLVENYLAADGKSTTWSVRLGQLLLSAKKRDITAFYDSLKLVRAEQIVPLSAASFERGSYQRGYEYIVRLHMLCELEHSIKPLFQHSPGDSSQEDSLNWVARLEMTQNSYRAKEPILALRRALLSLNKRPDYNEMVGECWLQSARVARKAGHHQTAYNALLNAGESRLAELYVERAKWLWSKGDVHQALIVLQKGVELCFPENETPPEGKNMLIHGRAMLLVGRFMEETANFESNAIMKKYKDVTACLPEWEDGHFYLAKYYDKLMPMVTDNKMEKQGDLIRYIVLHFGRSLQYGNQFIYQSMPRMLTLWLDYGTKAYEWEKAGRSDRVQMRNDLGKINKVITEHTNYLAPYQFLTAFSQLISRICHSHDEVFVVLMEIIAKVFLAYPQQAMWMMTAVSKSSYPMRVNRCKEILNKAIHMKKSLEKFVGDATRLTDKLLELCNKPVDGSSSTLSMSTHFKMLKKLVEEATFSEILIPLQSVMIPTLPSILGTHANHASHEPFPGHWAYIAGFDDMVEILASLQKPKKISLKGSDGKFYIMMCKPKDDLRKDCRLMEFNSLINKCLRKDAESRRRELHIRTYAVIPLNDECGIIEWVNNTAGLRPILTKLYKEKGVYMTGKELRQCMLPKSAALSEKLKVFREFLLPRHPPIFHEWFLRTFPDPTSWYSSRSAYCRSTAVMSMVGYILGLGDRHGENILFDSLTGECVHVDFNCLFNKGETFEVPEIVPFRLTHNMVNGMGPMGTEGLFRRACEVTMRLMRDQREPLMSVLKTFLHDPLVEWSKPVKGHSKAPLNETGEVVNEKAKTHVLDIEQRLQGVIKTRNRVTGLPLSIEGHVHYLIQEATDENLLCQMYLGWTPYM

SMILES	Ki [1] [µM]	Cisplatin Sensitization Assay [2]
CN1CC[C@@H](Oc2ncncc2NC(=O)c2c(N)nn3cc(F)cnc23)C1 [I-A-10, (R)-2-amino-6-fluoro-N-(4-((1-methylpyrrolidin-3-yl)oxy)pyrimidin-5-yl)pyrazolo[1,5-a]pyrimidine-3-carboxamide]	0.01 to 1	+ (Compounds with a Cisplatin sensitization value >0.2 μM but <5 μM are marked with “+.”)
CN1CC[C@H](Oc2ncncc2NC(=O)c2c(N)nn3cc(F)cnc23)C1 [I-A-11, (S)-2-amino-6-fluoro-N-(4-((1-methylpyrrolidin-3-yl)oxy)pyrimidin-5-yl)pyrazolo[1,5-a]pyrimidine-3-carboxamide]	1 to 5	++ (Compounds with a Cisplatin sensitization value >0.02 μM but <0.2 μM are marked with “++.”)
CN(C)[C@H]1CC[C@H](Oc2ncncc2NC(=O)c2c(N)nn3cc(F)cnc23)CC1 [I-A-12, 2-amino-N-(4-(((1r,4r)-4-(dimethylamino)cyclohexyl)oxy)pyrimidin-5-yl)-6-fluoropyrazolo[1,5-a]pyrimidine-3-carboxamide]	0.01 to 1	++ (Compounds with a Cisplatin sensitization value >0.02 μM but <0.2 μM are marked with “++.”)
CN(C)[C@H]1CC[C@H](Oc2ncncc2NC(=O)c2c(N)nn3ccc(C(F)(F)F)nc23)CC1 [I-A-13, 2-amino-N-(4-(((1r,4r)-4-(dimethylamino)cyclohexyl)oxy)pyrimidin-5-yl)-5-(trifluoromethyl)pyrazolo[1,5-a]pyrimidine-3-carboxamide]	0.01 to 1	++ (Compounds with a Cisplatin sensitization value >0.02 μM but <0.2 μM are marked with “++.”)
CC(C)Oc1ncncc1NC(=O)c1c(N)nn2cc(F)cnc12 [I-A-14, 2-amino-6-fluoro-N-(4-isopropoxypyrimidin-5-yl)pyrazolo[1,5-a]pyrimidine-3-carboxamide]	0.01 to 1	++ (Compounds with a Cisplatin sensitization value >0.02 μM but <0.2 μM are marked with “++.”)
CC(C)Oc1ncncc1NC(=O)c1c(N)nn2ccc(OCCN(C)C)nc12 [I-A-15, 2-amino-5-(2-(dimethylamino)ethoxy)-N-(4-isopropoxypyrimidin-5-yl)pyrazolo[1,5-a]pyrimidine-3-carboxamide]	1 to 5	+ (Compounds with a Cisplatin sensitization value >0.2 μM but <5 μM are marked with “+.”)
COc1ncncc1NC(=O)c1c(N)nn2ccc(OCCN(C)C)nc12 [I-A-16, 2-amino-5-(2-(dimethylamino)ethoxy)-N-(4-methoxypyrimidin-5-yl)pyrazolo[1,5-a]pyrimidine-3-carboxamide]	1 to 5	+ (Compounds with a Cisplatin sensitization value >0.2 μM but <5 μM are marked with “+.”)
COc1ncncc1NC(=O)c1c(N)nn2cc(CC#N)cnc12 [I-A-17, 2-amino-6-(cyanomethyl)-N-(4-methoxypyrimidin-5-yl)pyrazolo[1,5-a]pyrimidine-3-carboxamide]	0.01 to 1	++ (Compounds with a Cisplatin sensitization value >0.02 μM but <0.2 μM are marked with “++.”)
Nc1nn2cc(F)cnc2c1C(=O)Nc1cncnc1O[C@H]1C[C@]2(CCN2)C1 [I-A-18, N-(4-((4s,6r)-1-azaspiro[3.3]heptan-6-yloxy)pyrimidin-5-yl)-2-amino-6-fluoropyrazolo[1,5-a]pyrimidine-3-carboxamide]	1 to 5	+ (Compounds with a Cisplatin sensitization value >0.2 μM but <5 μM are marked with “+.”)
CN1CCN(C(=O)C2CCN(c3ncncc3NC(=O)c3c(N)nn4cc(F)cnc34)CC2)CC1 [I-A-19, 2-amino-6-fluoro-N-(4-(4-(4-methylpiperazine-1-carbonyl)piperidin-1-yl)pyrimidin-5-yl)pyrazolo[1,5-a]pyrimidine-3-carboxamide]	1 to 5	+ (Compounds with a Cisplatin sensitization value >0.2 μM but <5 μM are marked with “+.”)
Cc1ncccc1-c1cnncc1NC(=O)c1c(N)nn2cc(F)cnc12 [I-B-4, 2-amino-6-fluoro-N-(5-(2-methylpyridin-3-yl)pyridazin-4-yl)pyrazolo[1,5-a]pyrimidine-3-carboxamide]	0.01 to 1	+++ (Compounds with a Cisplatin sensitization value of <0.02 μM are marked with “+++.”)
CN1CCN(Cc2ccc(-c3cnncc3NC(=O)c3c(N)nn4cc(F)cnc34)cc2)CC1 [I-B-7, 2-amino-6-fluoro-N-(5-(4-((4-methylpiperazin-1-yl)methyl)phenyl)pyridazin-4-yl)pyrazolo[1,5-a]pyrimidine-3-carboxamide]	0.01 to 1	+++ (Compounds with a Cisplatin sensitization value of <0.02 μM are marked with “+++.”)

Continued, in another order:

Ki [1] [µM]	SMILES	Cisplatin Sensitization Assay [2]
1 to 5	CN1CCN(c2ncncc2NC(=O)c2c(N)nn3cc(F)cnc23)CC1 [I-A-20, 2-amino-6-fluoro-N-(4-(4-methylpiperazin-1-yl)pyrimidin-5-yl)pyrazolo[1,5-a]pyrimidine-3-carboxamide]	+ (Compounds with a Cisplatin sensitization value >0.2 μM but <5 μM are marked with “+.”)
0.01 to 1	CN1CCN(c2cnncc2NC(=O)c2c(N)nn3cc(F)cnc23)CC1 [I-B-1, 2-amino-6-fluoro-N-(5-(4-methylpiperazin-1-yl)pyridazin-4-yl)pyrazolo[1,5-a]pyrimidine-3-carboxamide]	++ (Compounds with a Cisplatin sensitization value >0.02 μM but <0.2 μM are marked with “++.”)
0.01 to 1	Nc1nn2cc(F)cnc2c1C(=O)Nc1cnncc1N1CCN(C2COC2)CC1 [I-B-2, 2-amino-6-fluoro-N-(5-(4-(oxetan-3-yl)piperazin-1-yl)pyridazin-4-yl)pyrazolo[1,5-a]pyrimidine-3-carboxamide]	++ (Compounds with a Cisplatin sensitization value >0.02 μM but <0.2 μM are marked with “++.”)
0.01 to 1	Nc1nn2cc(F)cnc2c1C(=O)Nc1cnncc1N1CCN(C2CCOCC2)CC1 [I-B-3, 2-amino-6-fluoro-N-(5-(4-(tetrahydro-2H-pyran-4-yl)piperazin-1-yl)pyridazin-4-yl)pyrazolo[1,5-a]pyrimidine-3-carboxamide]	++ (Compounds with a Cisplatin sensitization value >0.02 μM but <0.2 μM are marked with “++.”)
0.01 to 1	CN1CCN(C(=O)C2CCN(c3cnncc3NC(=O)c3c(N)nn4cc(F)cnc34)CC2)CC1 [I-B-5, 2-amino-6-fluoro-N-(5-(4-(4-methylpiperazine-1-carbonyl)piperidin-1-yl)pyridazin-4-yl)pyrazolo[1,5-a]pyrimidine-3-carboxamide]	++ (Compounds with a Cisplatin sensitization value >0.02 μM but <0.2 μM are marked with “++.”)
0.01 to 1	Nc1nn2cc(F)cnc2c1C(=O)Nc1cnncc1N1CCC(CN2CCC(F)(F)C2)CC1 [I-B-6, 2-amino-N-(5-(4-((3,3-difluoropyrrolidin-1-yl)methyl)piperidin-1-yl)pyridazin-4-yl)-6-fluoropyrazolo[1,5-a]pyrimidine-3-carboxamide]	+++ (Compounds with a Cisplatin sensitization value of <0.02 μM are marked with “+++.”)
0.01 to 1	Nc1nn2cc(F)cnc2c1C(=O)Nc1cnncc1N1CCC(CN2CCOCC2)CC1 [I-B-8, 2-amino-6-fluoro-N-(5-(4-(morpholinomethyl)piperidin-1-yl)pyridazin-4-yl)pyrazolo[1,5-a]pyrimidine-3-carboxamide]	++ (Compounds with a Cisplatin sensitization value >0.02 μM but <0.2 μM are marked with “++.”)
0.01 to 1	Nc1nn2cc(F)cnc2c1C(=O)Nc1cnncc1N1CCCCC1 [I-B-9, 2-amino-6-fluoro-N-(5-(piperidin-1-yl)pyridazin-4-yl)pyrazolo[1,5-a]pyrimidine-3-carboxamide]	+++ (Compounds with a Cisplatin sensitization value of <0.02 μM are marked with “+++.”)
0.01 to 1	CC(C)(C)N1CCN(C(=O)C2CCN(c3cnncc3NC(=O)c3c(N)nn4cc(F)cnc34)CC2)CC1 [I-B-10, 2-amino-N-(5-(4-(4-(tert-butyl)piperazine-1-carbonyl)piperidin-1-yl)pyridazin-4-yl)-6-fluoropyrazolo[1,5-a]pyrimidine-3-carboxamide]	++ (Compounds with a Cisplatin sensitization value >0.02 μM but <0.2 μM are marked with “++.”)
